Results as given in publication PMC3574224, “Na^+ Regulation in the Malaria Parasite Plasmodiumfalciparum Involves the Cation ATPase PfATP4 and Is a Target of the Spiroindolone Antimalarials” (Cell Host & Microbe, 2013).

Tests used:
[1] = system: P. falciparum Dd2^attB parent; test: Disruption of [Na^+]i regulation, SBFI-loaded trophozoites, Dd2^attB parent; type: cell-based; conditions: Plasmodium falciparum, from fitted curves, read-out: IC50 for disruption of Na^+ regulation by NITD246
Experimental: (§1) The [Na^+]i of saponin-isolated parasites was measured at 37°C using the Na^+-sensitive dye SBFI (Molecular Probes, Invitrogen) in conjunction with a PerkinElmer LS 50B Fluorescence Spectrometer fitted with a Dual Excitation Fast Filter. Saponin-isolated parasites were loaded with SBFI by suspension (at 1.40–1.80 × 10^8 cells/mL) for 20 min at 37°C in bicarbonate-free RPMI1640 supplemented with 20 mM D-glucose, 0.2 mM hypoxanthine, 25 mM HEPES, and 25 mg/L gentamycin sulfate (pH 7.10), to which SBFI-acetoxymethyl ester (5.5 μM) and Pluronic F-127 (0.01% w/v) were added. The dye-loaded cells were washed twice (12,000 × g, 0.5 min) in bicarbonate-free RPMI then incubated for a further 20 min at 37°C to allow for complete de-esterification of the dye before being resuspended at a final cell concentration of 1.5–2.5 × 10^7 cells/mL in standard saline. The dye-loaded cells were excited at 340 nm and 380 nm with fluorescence recorded at 490 nm. Calibration of the relationship between the 340/380 nm fluorescence ratio and [Na^+]i (see Figures S1A–S1C) was carried out as described previously ([Diarra et al., 2001]; [Harootunian et al., 1989]). Several inhibitors used in this study caused inner filter effects ([Gu and Kenny, 2009]; [Srinivas and Mutharasan, 1987]); in these cases calibration curves were generated with the inhibitors present. […]

[2] = system: P. falciparum trophozoites; test: Cytosolic pH (pHi) in BCECF-loaded saponin-isolated parasites; type: cell-based, Plasmodium falciparum; conditions: 50 nM
Experimental: pHi of saponin-isolated parasites was measured using the pH-sensitive indicator BCECF (Molecular Probes, Invitrogen) as described previously ([Saliba and Kirk, 1999]). […] Critical experiments performed using SBFI-loaded parasites were repeated with parasites loaded with BCECF.

[3] = system: P. falciparum parasites; test: Parasite proliferation, [^3H]hypoxanthine incorporation assay, 48 hr; type: cell-based; conditions: Plasmodium falciparum; mean ± SEM, number of independent experiments in parentheses; read-out: IC50 for inhibition of parasite proliferation
Experimental: (§2) Parasite growth assays were performed in 96-well plates over 48 hr (commencing at the ring stage) using a standard [^3H]hypoxanthine incorporation assay ([Desjardins et al., 1979]).
(§3) Dose-response curves were obtained using the expression y = y^min + y^max/(1 + [C/IC50]^b), where y is the parameter being measured (parasite proliferation, Na^+ influx, or ATPase activity), y^min is the minimum value of y, y^max is the maximum value of y, C is the concentration of the moiety that was varied in the experiment, IC50 is the concentration at which y was reduced to 50% of y^max, and b is a fitted constant.

[4] = system: P. falciparum NITD609-R^Dd2 clone #2 (mutant PfATP4); test: Parasite proliferation, [^3H]hypoxanthine incorporation, NITD609-R^Dd2 clone #2; type: cell-based; conditions: Plasmodium falciparum, mean ± SEM (n), read-out: IC50 for inhibition of parasite proliferation by NITD246
Experimental: as §2, §3

[5] = target: T1, membrane-associated ATPase activity in P. falciparum infected human erythrocytes (3D7) (Plasmodium falciparum, UniProt A0A143ZZK9); test: Membrane-associated ATPase activity (Pi production), infected erythrocyte membranes; type: biochemical; conditions: 50 nM
T1 construct: saponin-isolated parasites were lysed by suspension in ice-cold water; endogenous in cells; host or cells: membrane preparation of saponin-isolated mature trophozoite-stage P. falciparum 3D7 parasites
T1 sequence (A0A143ZZK9 whole entry): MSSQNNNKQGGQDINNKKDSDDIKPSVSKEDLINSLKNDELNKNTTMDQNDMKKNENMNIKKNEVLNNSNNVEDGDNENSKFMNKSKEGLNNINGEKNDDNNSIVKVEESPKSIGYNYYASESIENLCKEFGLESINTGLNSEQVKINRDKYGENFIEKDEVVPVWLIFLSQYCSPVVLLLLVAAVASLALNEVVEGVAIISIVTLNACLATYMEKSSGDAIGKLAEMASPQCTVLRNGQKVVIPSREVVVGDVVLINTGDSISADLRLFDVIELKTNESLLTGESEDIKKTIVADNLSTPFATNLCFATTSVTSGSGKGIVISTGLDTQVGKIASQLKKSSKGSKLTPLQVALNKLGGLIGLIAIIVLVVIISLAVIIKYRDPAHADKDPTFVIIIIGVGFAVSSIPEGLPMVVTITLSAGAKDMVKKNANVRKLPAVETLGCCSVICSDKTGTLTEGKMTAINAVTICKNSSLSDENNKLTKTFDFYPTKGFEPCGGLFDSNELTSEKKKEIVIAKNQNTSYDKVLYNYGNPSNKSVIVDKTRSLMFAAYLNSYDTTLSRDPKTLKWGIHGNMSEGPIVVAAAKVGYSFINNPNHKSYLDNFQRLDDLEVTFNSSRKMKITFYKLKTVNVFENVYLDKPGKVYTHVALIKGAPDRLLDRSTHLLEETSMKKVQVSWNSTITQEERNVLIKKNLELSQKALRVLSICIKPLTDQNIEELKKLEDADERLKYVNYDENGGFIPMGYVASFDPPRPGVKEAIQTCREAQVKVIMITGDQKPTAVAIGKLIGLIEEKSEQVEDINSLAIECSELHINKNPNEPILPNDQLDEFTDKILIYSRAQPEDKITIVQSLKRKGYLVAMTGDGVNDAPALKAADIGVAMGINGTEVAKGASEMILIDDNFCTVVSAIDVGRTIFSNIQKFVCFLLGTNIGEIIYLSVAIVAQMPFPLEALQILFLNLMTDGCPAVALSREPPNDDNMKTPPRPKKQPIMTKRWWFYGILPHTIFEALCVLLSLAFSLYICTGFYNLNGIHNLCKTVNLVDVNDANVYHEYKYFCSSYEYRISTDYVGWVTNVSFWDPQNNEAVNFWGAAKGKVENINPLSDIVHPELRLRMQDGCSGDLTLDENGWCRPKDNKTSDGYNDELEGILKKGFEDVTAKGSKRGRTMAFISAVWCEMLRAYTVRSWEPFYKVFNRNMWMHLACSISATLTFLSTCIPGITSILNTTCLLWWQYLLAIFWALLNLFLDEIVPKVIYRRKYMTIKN
Experimental: For the preparation of uninfected erythrocyte membranes, packed uninfected erythrocytes were lysed by incubation for 5 min in ice-cold PBS containing 0.1% (w/v) saponin together with 1/500 Protease Inhibitor Cocktail Set III (Calbiochem). The erythrocyte ghosts were pelleted by centrifugation (12,000 × g, 10 min) and washed three times in ice-cold water (12,000 × g, 10 min) immediately prior to their use in the ATPase assay. To prepare membranes from parasitised erythrocytes, saponin-isolated parasites were lysed by suspension in ice-cold water (containing 1/500 Protease Inhibitor Cocktail Set III) then washed three times in ice-cold water (12,000 × g, 10 min) before their immediate use in the ATPase assay. The ATPase activity of membrane preparations from uninfected erythrocytes and saponin-isolated parasites was estimated from the rate of hydrolysis of ATP and measured using the PiColorLock Gold Phosphate (Pi) Detection System (Innova Biosciences). Briefly, membrane preparations from 1–3 × 10^8 cells were suspended in reaction buffer (100 mM of either NaCl or choline chloride, 50 mM Tris-HCl, 20 mM KCl, and 2 mM MgCl2) at 37°C. The ATPase reaction was initiated by the addition of 0.25 mM Na2ATP. Note that it was necessary to use the Na^+ salt of ATP, rather than the K^+ and Mg^2+ salts, as the latter both contain residual Pi that saturated the Pi detection system. […]

[6] = system: P. falciparum trophozoites; test: Cytosolic [Ca^2+]i in fura-2-loaded saponin-isolated parasites; type: cell-based, Plasmodium falciparum; conditions: 50 nM; medium containing 1 μM Ca^2+
Experimental: [Ca^2+]i was measured with the Ca^2+-sensitive indicator fura-2 (Molecular Probes, Invitrogen) using a loading protocol identical to that described for SBFI. Calibration was performed as described previously ([Alleva and Kirk, 2001]).

[7] = system: P. falciparum NITD609-R^Dd2 clone #2 (mutant PfATP4); test: Disruption of [Na^+]i regulation, SBFI-loaded trophozoites, NITD609-R^Dd2 clone #2; type: cell-based; conditions: Plasmodium falciparum, from fitted curves, read-out: IC50 for disruption of Na^+ regulation by NITD246
Experimental: as §1

`C[C@H]1Cc2c([nH]c3cc(F)c(F)cc23)[C@@]2(N1)C(=O)Nc1ccc(Cl)cc12` [NITD246] was tested, and the IC50 [1] was 1.7 ± 0.5 nM, the “Cytosolic pH (pHi) after addition” value ([2]; Na^+-containing medium pH 7.1, increase from 7.33 ± 0.03, n = 6, p = 0.009) was 7.46 ± 0.02 and the “Effect on pHi” value ([2]; solution containing choline^+ in place of Na^+) was “no significant effect”. It also gave an IC50 [3] of 0.12 ± 0.02 nM, an IC50 [4] of 0.89 ± 0.12 nM and a remaining activity at 0.05 µM ([5]; 100 mM Na^+, n = 5, p = 0.020, read-out: ATPase activity, % of the control value) of 60%. For the same compound, the “Effect on ATPase activity” value ([5]; low (0.5 mM) [Na^+] medium, p = 0.63) was “no significant change”, the “Effect on [Ca^2+]i” value [6] was “no effect” and the IC50 [7] was 10.4 ± 8.4 nM.
